Reference: patent US20040204486A1, “Anandamide and structurally related lipids as vanilloid receptor modulators” (priority 2000, published 2004)
Read-outs that look alike come from different tables or passages of the source. No end group written: not given here.

Tests used:
[1] = system: rat hepatic artery; experiment: Recording of tension: relaxation of isolated rat hepatic artery contracted with phenylephrine; settings: for effect on AM404-induced relaxations / effect on anandamide-induced relaxation: capsaicin 10 μM pre-treatment; for effect on AM404-induced relaxations: 8-37 CGRP 3 μM, SR141716A 0.3 μM; for effect on anandamide-induced relaxation: 8-37 CGRP 2 μM; for EC50: read-out: pEC50 of relaxation (converted); for vasodilator response (relaxation): α-latrotoxin 1 nM
[2] = system: rat mesenteric artery; experiment: Recording of tension: relaxation of isolated rat mesenteric artery contracted with phenylephrine; settings: for effect on anandamide-induced relaxation / effect on relaxant effects of 1-arachidonylglycerol and 2-arachidonylglycerol: capsaicin 10 μM pre-treatment; for effect on anandamide-induced relaxation: 8-37 CGRP 2 μM; for effect on relaxant effects of 1-arachidonylglycerol and 2-arachidonylglycerol: rat mesenteric arteries, capsazepine 1 μM
[3] = system: guinea pig basilar artery; experiment: Recording of tension: relaxation of isolated guinea pig basilar artery contracted with prostaglandin F2α; settings: for effect on anandamide-induced relaxation: capsaicin 10 μM pre-treatment, 8-37 CGRP 2 μM; for Emax / EC50: Cavia porcellus; for Emax: read-out: Emax of relaxation, guinea pig basilar artery; for EC50: read-out: pEC50 of relaxation, guinea pig basilar artery (converted)
[4] = system: cyclic AMP content; experiment: Measurement of cyclic AMP content in rat hepatic artery segments
[5] = system: CGRP release from perivascular sensory nerves; experiment: Measurement of CGRP release from rat hepatic artery segments (radioimmunoassay)
Method: Measurement of CGRP and cyclic AMP.
After 10 minutes the segments were removed and the physiological salt solution was evaporated.

[6] = target: T1, vanilloid receptors (Rattus norvegicus, UniProt O35433); experiment: Schild analysis of capsazepine antagonism of relaxation in rat hepatic artery; settings: for slope of the Schild regression line: mean±SEM; for Kb: pA2 (Schild plot)
T1 construct: To determine whether native vanilloid receptors might be involved in the action of anandamide; from tissue; host or cells: hepatic artery ring segments from female Wistar-Hannover rats
Method: Recording of tension. Experiments were performed on hepatic (400 μm outer diameter) and mesenteric (200 μm outer diameter) arteries from female Wistar-Hannover rats (200-250 g) and on basilar arteries (300 μm outer diameter) from male guinea pigs. […] All experiments were performed in the presence of N^G-nitro-L-arginine (0.3 mM) and indomethacin (10 μM) to eliminate any contribution of nitric oxide and cyclooxygenase products, respectively (refs. 38, 23). Relaxant responses were studied in preparations contracted with phenylephrine (rat hepatic and mesenteric arteries) and prostaglandin F2α (guinea pig basilar artery) (refs. 38, 43). When stable contractions were obtained, agonists were added cumulatively to determine concentration-response relationships.
Some preparations were pre-treated with capsaicin for 1 hour followed by washout for 20 minutes. Each vessel segment was exposed to only one treatment. The experiments were carried out with the approval of the local ethics committee.
Calculations and statistics. Relaxations are expressed as percentage reversal of the prevailing contraction (100% indicates a complete reversal to basal tension). […] Data are presented as means±s.e.mean (vertical lines in figures), and n indicates the number of vascular segments (animals) examined. pA2 and slope values of the Shild plots were estimated according to the Jackknife method (ref. 46). Statistical analysis was performed by using Student's t-test (two-tailed), Mann-Whitney U-test, or analysis of variance (ANOVA) on log transformed values (cyclic AMP) followed by Bonferroni Dunn's post hoc test (Statview 4.12). Statistical significance was accepted when P<0.05.

[7] = target: cannabinoid CB1 receptors (Homo sapiens, UniProt P21554); settings: cited from earlier work
[8] = rat mesenteric artery, capsazepine 3 μM
[9] = guinea pig basilar artery, capsazepine 3 μM
[10] = guinea pig basilar artery, 10 μM
[11] = segments pre-treated with capsaicin (10 μM)
[12] = Rattus norvegicus, control (agonist alone)
[13] = Rattus norvegicus, in presence of SR141716A (0.3 μM)
[14] = in presence of SR141716A (0.3 μM)

T1 sequence (O35433 whole entry): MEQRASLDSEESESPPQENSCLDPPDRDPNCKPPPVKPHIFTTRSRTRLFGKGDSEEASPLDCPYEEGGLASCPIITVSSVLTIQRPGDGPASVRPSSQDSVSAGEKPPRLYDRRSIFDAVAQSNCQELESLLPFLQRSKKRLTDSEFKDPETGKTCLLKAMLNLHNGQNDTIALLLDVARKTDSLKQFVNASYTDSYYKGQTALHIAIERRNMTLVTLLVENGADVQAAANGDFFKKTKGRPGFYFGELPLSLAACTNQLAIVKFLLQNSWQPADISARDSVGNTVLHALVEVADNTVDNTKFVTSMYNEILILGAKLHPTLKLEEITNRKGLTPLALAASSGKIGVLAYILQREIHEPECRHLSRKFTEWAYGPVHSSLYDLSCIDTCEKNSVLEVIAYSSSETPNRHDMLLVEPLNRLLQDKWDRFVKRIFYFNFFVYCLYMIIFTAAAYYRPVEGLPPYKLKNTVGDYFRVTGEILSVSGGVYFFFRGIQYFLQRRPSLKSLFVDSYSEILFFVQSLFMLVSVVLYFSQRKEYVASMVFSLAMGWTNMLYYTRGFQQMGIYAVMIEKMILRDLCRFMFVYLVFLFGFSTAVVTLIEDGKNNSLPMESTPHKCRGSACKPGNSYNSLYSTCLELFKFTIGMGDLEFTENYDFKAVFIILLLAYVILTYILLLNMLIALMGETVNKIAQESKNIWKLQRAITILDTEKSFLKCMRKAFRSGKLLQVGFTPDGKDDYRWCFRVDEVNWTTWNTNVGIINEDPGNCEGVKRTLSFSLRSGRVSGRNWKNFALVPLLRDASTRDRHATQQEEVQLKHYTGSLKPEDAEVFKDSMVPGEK
Sequence of cannabinoid CB1 receptors (P21554 whole entry): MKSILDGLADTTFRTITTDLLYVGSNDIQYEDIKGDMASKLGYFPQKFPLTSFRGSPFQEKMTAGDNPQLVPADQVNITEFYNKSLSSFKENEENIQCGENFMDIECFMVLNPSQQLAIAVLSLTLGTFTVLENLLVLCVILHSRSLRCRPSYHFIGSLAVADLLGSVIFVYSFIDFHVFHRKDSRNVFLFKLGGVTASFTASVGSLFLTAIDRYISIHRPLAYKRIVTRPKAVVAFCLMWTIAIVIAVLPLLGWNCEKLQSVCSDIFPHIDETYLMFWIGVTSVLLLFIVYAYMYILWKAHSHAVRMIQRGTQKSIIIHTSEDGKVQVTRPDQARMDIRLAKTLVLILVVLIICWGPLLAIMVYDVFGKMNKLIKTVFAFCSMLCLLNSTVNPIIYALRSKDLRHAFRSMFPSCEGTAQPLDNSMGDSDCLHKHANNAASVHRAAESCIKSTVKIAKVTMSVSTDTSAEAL

Cc1c(C(=O)NN2CCCCC2)nn(-c2ccc(Cl)cc2Cl)c1-c1ccc(Cl)cc1.Cl [SR141716A, N-(piperidin-1-yl)-5-(4-chlorophenyl)-1-(2,4-dichlorophenyl)-4-methyl-1H-pyrazole-3-carboxamide hydrochloride]
effect on AM404-induced relaxations ([1]; capsazepine 3 μM): without effect

8-37 CGRP: selective CGRP receptor antagonist (VTHRLAGLLSRSGGVVKNNFVPTNVGSKAF; ends and bridges not checked; UniProt P06881 90-119, looked up, fragment)
effect on anandamide-induced relaxation ([1]; capsazepine 3 μM): inhibited | effect on AM404-induced relaxations ([1]; capsazepine 3 μM): abolished | effect on anandamide-induced relaxation [2, 8]: inhibited | effect on anandamide-induced relaxation [3, 9]: inhibited

Cc1c(C(=O)c2cccc3ccccc23)c2cccc3c2n1[C@H](CN1CCOCC1)CO3 [WIN 55,212-2]
relaxation [1]: did not produce any relaxation | relaxation ([3]; guinea pig basilar artery): did not produce any relaxation

CCCCCCCCCCCCCCCC(=O)NCCO [palmitylethanolamide]
relaxation [1]: did not produce any relaxation | relaxation ([3]; guinea pig basilar artery): did not produce any relaxation

CCCCCCC(C)(C)c1ccc([C@@H]2C[C@H](O)CC[C@H]2CCCO)c(O)c1 [CP 55,940]
relaxation at 10 μM ([1]; 10 μM): significant relaxation | relaxation after pre-treatment with capsaicin ([1]; 10 μM, capsaicin (10 μM) pre-treatment): resistant to pre-treatment with capsaicin | relaxation at 10 μM [3, 10]: significant relaxation | relaxation after pre-treatment with capsaicin ([3]; guinea pig basilar artery, 10 μM, capsaicin (10 μM) pre-treatment): resistant to pre-treatment with capsaicin

CCCCC/C=C\C/C=C\C/C=C\C/C=C\CCCC(=O)NCCO [anandamide, arachidonylethanolamide]
tissue content of cyclic AMP ([4]; anandamide 10 μM or CGRP 10 nM, 5 minutes): increase in tissue content of cyclic AMP | tissue content of cyclic AMP after capsaicin pre-treatment [4, 11]: absent | relaxation at 10 μM ([1]; 10 μM): completely relaxed | Emax [1, 12]: 100 ± 1% | EC50 [1, 12]: 355 nM | Emax [1, 13]: 97 ± 1% | pEC50 of relaxation ([1]; control (agonist alone)): 6.49±0.01 | pEC50 of relaxation [1, 14]: 6.44±0.12 | Emax ([3]; control (agonist alone)): 92 ± 3% | Emax [3, 14]: 91 ± 2% | EC50 ([3]; control (agonist alone)): 955 nM | EC50 [3, 14]: 776 nM | relaxation at 10 μM [3, 10]: completely relaxed | release of CGRP ([5]; anandamide 10 μM, 10 minute exposure): significant release of CGRP | release of CGRP after capsaicin pre-treatment [5, 11]: absent

Oc1cc2c(cc1O)CN(C(=S)NCCc1ccc(Cl)cc1)CCC2 [capsazepine]
effect on anandamide-induced relaxation ([1]; capsazepine 3 μM): significantly inhibited | effect on AM404-induced relaxations ([1]; capsazepine 3 μM): significant right-ward shift | effect on capsaicin-induced relaxation ([1]; capsazepine 3 μM): significantly inhibited | effect on relaxant effects of 1-arachidonylglycerol and 2-arachidonylglycerol [2]: inhibited | effect on anandamide-induced relaxation [2, 8]: significantly inhibited | effect on capsaicin-induced relaxation [2, 8]: significantly inhibited | effect on anandamide-induced relaxation [3, 9]: significantly inhibited | effect on capsaicin-induced relaxation [3, 9]: significantly inhibited | slope of the Schild regression line ([6]; capsaicin as agonist): 2.12±0.36 | slope of the Schild regression line ([6]; methanandamide as agonist): 2.41±0.32 | Kb ([6]; capsaicin as agonist): 575 nM | Kb ([6]; methanandamide as agonist): 457 nM | effect on anandamide-induced release of CGRP ([5]; capsazepine 10 μM): inhibited

NCCO [ethanolamine]
relaxation at 10 μM ([1]; 10 μM): inactive | relaxation at 10 μM [3, 10]: inactive

CCCCC/C=C\C/C=C\C/C=C\C/C=C\CCCCOCC(O)CO (stereo not shown) [1-arachidonylglycerol]
vasodilator action ([2]; rat mesenteric arteries contracted with phenylephrine): vasodilators

CCCCC/C=C\C/C=C\C/C=C\C/C=C\CCCC(=O)O [arachidonic acid]
relaxation at 10 μM ([1]; 10 μM): inactive | relaxation at 10 μM [3, 10]: inactive

CCCCCCC(C)(C)c1cc(O)c2c(c1)OC(C)(C)[C@@H]1CC=C(CO)C[C@@H]21 [HU 210]
relaxation [1]: did not produce any relaxation | relaxation ([3]; guinea pig basilar artery): did not produce any relaxation

CCCCC/C=C\C/C=C\C/C=C\C/C=C\CCCC(=O)N[C@H](C)CO [methanandamide]
Emax [1, 12]: 99 ± 1% | EC50 [1, 12]: 316 nM | Emax [1, 13]: 99 ± 1% | Emax of relaxation ([1]; control (agonist alone)): 97±1% | pEC50 of relaxation ([1]; control (agonist alone)): 6.53±0.08 | pEC50 of relaxation [1, 14]: 6.30±0.04

COc1cc(CNC(=O)CCCC/C=C/C(C)C)ccc1O [capsaicin]
relaxation at 10 μM ([1]; 10 μM): completely relaxed | Emax [1, 12]: 99 ± 1% | Emax ([1]; Rattus norvegicus, in presence of SR141716A (10 μM)): 90 ± 3% | effect on anandamide-induced relaxation ([1]; capsazepine 3 μM): abolished | effect on AM404-induced relaxations ([1]; capsazepine 3 μM): abolished | EC50 ([1]; control (agonist alone)): 4.27 nM | pEC50 of relaxation ([1]; in presence of SR141716A (10 μM)): 7.42±0.12 | effect on relaxant effects of 1-arachidonylglycerol and 2-arachidonylglycerol [2]: abolished | effect on anandamide-induced relaxation [2, 8]: abolished | relaxation at 10 μM [3, 10]: completely relaxed | effect on anandamide-induced relaxation [3, 9]: abolished

CCCCCC=CCC=CCC=CCC=CCCCC(=O)Nc1ccc(O)cc1 [AM404, N-(4-hydroxyphenyl)-5,8,11,14-eicosatetraenamide]
Ki [7]: 1760 nM | vasodilator potency compared to anandamide [1]: ~10 times | Emax [1, 12]: 97 ± 2% | EC50 [1, 12]: 39.8 nM | effect on anandamide-induced relaxation ([1]; capsazepine 3 μM): inhibited this response | pEC50 of relaxation ([1]; control (agonist alone)): 7.3±0.2 | pEC50 of relaxation ([1]; in presence of capsazepine (3 μM)): 6.4±0.2

B1: α-latrotoxin (protein, UniProt P23631 21-1199, looked up)
Alpha-latrotoxin-Lt1a: EGEDLTLEEKAEICSELELQQKYVDIASNIIGDLSSLPIAGKIAGTIAAAAMTATHVASGRLDIEQTLLGCSDLPFDQIKEVLENRFNEIDRKLDSHSAALEEITKLVEKSISVVEKTRKQMNKRFDEVMKSIQDAKVSPIISKINNFARYFDTEKERIRGLKLNDYILKLEEPNGILLHFKESRTPTDDSLQAPLFSIIEEGYAVPKSIDDELAFKVLYALLYGTQTYVSVMFFLLEQYSFLANHYYEKGYLEKYDEYFNSLNNVFLDFKSSLVGTGTSNNEGLLDRVLQVLMTVKNSEFLGLEKNGVDEMLNEKINLFNKIKEEIEGKQKMTLSETPENFAQISFDKDITTPIGDWRDGREVRYAVQYASETLFSKISHWSDPVSVREKACPTLRMPVDQTRRNVLVFRKFDSSKPQLVGEITPYLSNFIDIDRDLYNAASNPDSAVGFKEFTKLNYDGANIRATFDHGRTVFHAAAKSGNDKIMFGLTFLAKSTELNQPDKKGYTPIHVAADSGNAGIVNLLIQRGVSINSKTYHFLQTPLHLAAQRGFVTTFQRLMESPEININERDKDGFTPLHYAIRGGERILEAFLNQISIDVNAKSNTGLTPFHLAIIKNDWPVASTLLGSKKVDINAVDENNITALHYAAILGYLETTKQLINLKEINANVVSSPGLLSALHYAILYKHDDVASFLMRSSNVNVNLKALGGITPLHLAVIQGRKQILSLMFDIGVNIEQKTDEKYTPLHLAAMSKYPELIQILLDQGSNFEAKTNSGATPLHLATFKGKSQAALILLNNEVNWRDTDENGQMPIHGAAMTGLLDVAQAIISIDATVVDIEDKNSDTPLNLAAQNSHIDVIKYFIDQGADINTRNKKGLAPLLAFSKKGNLDMVKYLFDKNANVYIADNDGMNFFYYAVQNGHLNIVKYAMSEKDKFEWSNTDNNRRDECPNEECAISHFAVCDAVQFDRIEIVKYFVGTLGNFAICGPLHQAARYGHLDIVKYLVEEEFLSVDGSKTDTPLCYASENGHFTVVQYLVSNGAKVNHDCGNGMTAIDKAITKNHLQVVQFLAANGVDFRRKNSRGTTPFLTAVAENALHIAEYLIREKRQDININEQNVDKDTALHLAVYYKNLQMIKLLIKYGIDVTIRNAYDKTALDIAIDAKFSNIVEYLKTKSGKFRR
vasodilator response (relaxation) ([1]; CGRP 8-37 (2 μM)): −8±3% | vasodilator response (relaxation) ([1]; capsaicin pre-treatment): −16±8% | vasodilator response (relaxation) ([1]; capsazepine (3 μM)): 93±2% | vasodilator response (relaxation) ([1]; control): 98±1%
